One molecule from patent EP0466251A1, “Elfamycin-resistant mutants” (priority 1990, dated 1992) can be followed below.

≈ marks a conversion by molar mass, not a printed value. Some results are limits rather than exact numbers.

One assay has as its target T1, SrEF-Tu mutant A378V (Streptomyces ramocissimus, UniProt P29542, A379V).
T1 construct: made in house; host or cells: E. coli PM1455
As to the kind of experiment: in vitro poly(U) directed poly(phe) synthesis. The format is biochemical, S. ramocissimus. The protocol: (§1) The sensitivity of SrEF-Tu mutants A378V and A378T to elfamycin was tested by in vitro studies. Both parent and mutant S. ramocissimus EF-Tu, after transformation of the respective cloned genes, were expressed in an E. coli strain encoding an elfamycin resistant EF-Tu. Cell-free extracts of these transformants were subsequently tested for elfamycin sensitivity of the translation apparatus, using a variation on the procedure described by C. Glöckner and H. Wolf (cited above). […] The parent SrEF-Tu reached 50% residual activity already at 1.6 mg/l. […]
(§2) Plasmids pUSrT1-1, pUSrT1V-1 and pUSrT1T-1 were transformed to E. coli PM1455 (tufA, tufB::Mu, rpoB, recA56; P. van der Meide et al., Eur. J. Biochem. 130 (1983) 409-417); this strain has only one active tuf gene, which encodes an elfamycin resistant EF-Tu. […] The first 4 fractions having absorbance at 260 nm were pooled. […]
(§3) At 0°C an incubation mixture was prepared consisting of 40 mM Tris-acetate pH 7.6, 10 mM Mg-acetate, 60 mM NH₄Cl, 5 mM β-mercaptoethanol, 1 mM ATP, 0.025 mM GTP, 2.5 mM phosphoenolpyruvate, 0.25 µg/ml pyruvate kinase, 0.8 mg/ml tRNA, 0.1 mg/ml poly(U), 95 µM phenylalanine, and 3 µCi/ml ³H-phenylalanine (57 Ci/mmol). […] Incorporation of ³H-phenylalanine was analyzed in a liquid scintillation counter. […]

The test system of assay [1] is S. ramocissimus R1V. The experiment in a line: germination and growth of spores on solid medium (HI-agar). The class given is cell-based. Also on record: key to Germination and growth of spores: +++ = good growth; ++ = slow growth; + = very slow growth; - = no growth. The protocol:
(§4) Similar results were obtained on solid medium (HI-agar, Difco) containing 0 to 1 g/l mocimycin; spores from S. ramocissimus R1V and S. ramocissimus CBS 190.69 were diluted such that approximately 200 colony forming units were applied to each agar plate. Incubation of the plates was at 30°C for 5 days. For the control strain S. ramocissimus CBS 190.69 no colonies appeared above 0.1 g/l mocimycin; on the contrary, spores of S. ramocissimus strain R1V quantitatively were able to germinate and form colonies at least up to 0.75 g/l.

The subject of assay [2] is S. ramocissimus CBS 190.69. Described as above. The class given is cell-based. Also on record: key to Germination and growth of spores: +++ = good growth; ++ = slow growth; + = very slow growth; - = no growth. Here is the method:
as §4

For assay [3], the system named is S. ramocissimus R1V. The experiment in a line: growth of plated mycelium, minimal inhibitory concentration. The following applies: mycelium pregrown in YMG medium without mocimycin; 1 ml of a 16 hrs culture plated. The format is cell-based. The source says: (§5) Essentially identical results were obtained when for each of the strains spores were substituted by mycelium, pregrown in YMG medium without mocimycin.

The test system of assay [4] is S. ramocissimus CBS 190.69. The assay is described as above. The class given is cell-based. The following applies: mycelium pregrown in YMG medium without mocimycin; 1 ml of a 16 hrs culture plated.
Text: as §5

The test system of assay [5] is S. ramocissimus R1V. The experiment in a line: germination and growth of spores in liquid YMG medium. The format is cell-based. The following applies: 5.10⁷ spores/ml, 25 ml YMG medium, shake flasks, 5 days at 30°C. Here is the method:
(§6) Spores, mycelium, and protoplasts of strain S. ramocissimus R1V were examined with respect to the minimal inhibitory concentration of mocimycin on their growth properties.
(§7) Spores of strain S. ramocissimus R1V and the control S. ramocissimus CBS 190.69 were inoculated at 5.10⁷ spores/ml in parallel shake flasks containing 25 ml YMG medium and mocimycin at concentrations ranging from 0 to 1 g/l. Incubation was for 5 days at 30°C. For the control strain 0.15 g/l mocimycin inhibited germination (and/or growth) of the spores, whereas spores of S. ramocissimus strain R1V still germinated and grew at mocimycin concentrations up to 0.75 g/l.

Assay [6] has as its system S. ramocissimus CBS 190.69. The assay is described as above. The following applies: 5.10⁷ spores/ml, 25 ml YMG medium, shake flasks, 5 days at 30°C. The class given is cell-based. Here is the method: as §6, §7
In assay [7] the target is T2, parent SrEF-Tu from S. ramocissimus CBS 190.69 (Streptomyces ramocissimus, UniProt P29542).
T2 construct: made in house; host or cells: E. coli PM1455
The experiment in a line: in vitro poly(U) directed poly(phe) synthesis. The class given is biochemical. Here is the method: as §1, §2, §3

[8] abbreviates: 16 mg/l mocimycin, period of 40 minutes.
The mark [9] stands for this setting: S-30 extract of E. coli PM1455 transformant, reaction time 10 minutes.
The mark [10] stands for this setting: approximately 200 colony forming units per plate, 30°C for 5 days.

T2 sequence (P29542 whole entry): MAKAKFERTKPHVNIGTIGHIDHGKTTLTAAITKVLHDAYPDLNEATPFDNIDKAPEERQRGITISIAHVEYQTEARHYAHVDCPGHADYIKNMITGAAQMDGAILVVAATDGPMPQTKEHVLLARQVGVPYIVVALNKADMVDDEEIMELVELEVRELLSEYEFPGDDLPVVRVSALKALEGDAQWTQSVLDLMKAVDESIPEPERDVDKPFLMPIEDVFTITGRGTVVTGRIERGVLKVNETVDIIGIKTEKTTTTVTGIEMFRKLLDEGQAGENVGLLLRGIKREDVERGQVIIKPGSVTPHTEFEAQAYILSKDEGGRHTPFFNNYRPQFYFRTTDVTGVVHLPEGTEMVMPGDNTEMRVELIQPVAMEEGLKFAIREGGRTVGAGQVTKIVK
T1 sequence (P29542 whole entry A379V): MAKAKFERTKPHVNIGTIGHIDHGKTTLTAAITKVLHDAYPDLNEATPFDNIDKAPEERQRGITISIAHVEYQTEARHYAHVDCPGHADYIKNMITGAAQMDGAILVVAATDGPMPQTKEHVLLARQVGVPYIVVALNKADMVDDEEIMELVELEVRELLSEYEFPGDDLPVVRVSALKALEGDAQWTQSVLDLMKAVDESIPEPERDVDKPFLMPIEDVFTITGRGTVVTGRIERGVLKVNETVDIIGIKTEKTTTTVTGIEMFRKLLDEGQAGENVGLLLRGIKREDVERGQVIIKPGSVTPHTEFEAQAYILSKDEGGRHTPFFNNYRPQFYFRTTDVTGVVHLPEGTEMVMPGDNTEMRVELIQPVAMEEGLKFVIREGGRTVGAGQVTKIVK

Take `C/C=C\C=C\[C@@H]1O[C@](O)([C@H](CC)C(=O)NC/C=C/C=C(\C)[C@@H](OC)[C@H](C)[C@@H]2O[C@H](/C=C/C=C/C=C(\C)C(=O)c3c(O)cc[nH]c3=O)[C@H](O)[C@@H]2O)[C@H](O)[C@H](O)C1(C)C` [mocimycin, Mocimycin]: the “efficiency of ³H-phenylalanine incorporation compared to the parallel incubation without mocimycin” value at SrEF-Tu mutant A378V (setting [8]) stood at 80%. Further, the figures for the “mocimycin concentration at a residual activity of 50% in the in vitro poly(phe) synthesis” value (at SrEF-Tu mutant A378V (setting [9]); in assay [7] (setting [9])) were 160 mg/L and 1.6 mg/L, respectively. Further, the “mocimycin concentration up to which spores were able to germinate and form colonies” value in the assay with S. ramocissimus R1V [1] (setting [10]) is no less than 0.75 g/L. Also, the “Germination and growth of spores” value in the assay on S. ramocissimus R1V [1] (mocimycin 0.10 g/l) is “+++”; with S. ramocissimus R1V [1] (mocimycin 0.20 g/l), “+++”; in the assay on S. ramocissimus R1V [1] (mocimycin 0.40 g/l) it was “++”; with S. ramocissimus R1V [1] (mocimycin 0.60 g/l) it was “++”; in the assay with S. ramocissimus R1V [1] (mocimycin 0.75 g/l), “+”; with S. ramocissimus R1V [1] (mocimycin 1.0 g/l) it was “-”. Further, the “Germination and growth of spores” value in assay [2] (mocimycin 0.10 g/l) was “+”; in assay [2] (mocimycin 0.20 g/l), “-”; in assay [2] (mocimycin 0.40 g/l), “-”; in assay [2] (mocimycin 0.60 g/l), “-”; in assay [2] (mocimycin 0.75 g/l), “-”; in assay [2] (mocimycin 1.0 g/l), “-”. The “mocimycin concentration above which no colonies appeared” value in assay [2] (setting [10]) is “above 0.1 g/l”. For the same molecule, the minimal inhibitory concentration with S. ramocissimus R1V [3] was 750 µg/mL (≈ 941 µM); in assay [4], 150 µg/mL (≈ 188 µM). Further, the “mocimycin concentrations at which spores still germinated and grew” value in the assay on S. ramocissimus R1V [5] is recorded as “up to 0.75 g/l”. For the same molecule, in assay [6], the “mocimycin concentration that inhibited germination (and/or growth) of the spores” value amounted to 0.15 g/L. Further, the “efficiency of ³H-phenylalanine incorporation compared to the mocimycin free reaction” value in assay [7] (setting [8]) is recorded as no more than 20%.
